Measured values reported in patent US6407093B1, “1,4-Diazacycloheptane derivatives for the treatment of neurological disorders” (Astrazeneca UK Limited, priority 1998, dated 2002).
Where a name gives a salt, the structure may show the parent alone.

Columns and labels:
[1] = target: L-type voltage sensitive calcium channels (3H-D888 binding site); experiment: 3H-D-888 binding to rat brain cortical membranes; settings: 1 nM 3H-D888, rat cortical membranes, 60 minutes at 25° C.; in vitro selectivity test
Method: -^3H-D-888 Binding to Rat Brain Cortical Membranes
The method of ^3H-D-888 binding was a modification of Reynolds, I. J., Snowman, A. M. and Synder, S. H. (−)-[^3H] Desmethoxyverapamil labels multiple calcium channel modular receptors in brain and skeletal muscle membranes: differentiation by temperature and dihydropyridines. J. Pharmacol. Exp. Ther. 237: no.3, 731-738, 1986.
The assay tubes contained the following: assay buffer: 50 mM Hepes, 0.2% BSA, pH 7.4 radioligand: 1ηM ^3H-D888 (Amersham) rat cortical membranes: 6 mg/ml original wet weight
This mixture was incubated for 60 minutes at 25° C. The assay was terminated by filtering with a Brandel Cell Harvester over Whatman GF/C filters that had been soaked for at least 120 minutes in 0.3% polyethylenamine (PEI) and washed three times with 5 mL of wash buffer containing 20 mM Hepes, 20 mM MgCl2, pH 7.4. Specific binding was measured with 10 μM methoxyverapamil (D-600). This assay was used to determine in vitro selectivity of compounds vs. L-type voltage sensitive calcium channels, i.e high affinity for the ^3H-D888 binding site would show a lack of selectivity.
Rat Brain Cortical Membrane Preparation
Male Sprague-Dawley Rats were sacrificed by decapitation and the brains were quickly excised. The cerebellum and brain stem were removed and discarded; and the rest of the brain was rinsed in 320 mM sucrose. […]

[2] = target: T1, [3H]-emopamil binding site (Cavia porcellus, UniProt Q60490); experiment: (−)-3H-Emopamil binding to guinea pig liver membranes; settings: 0.96 nM (−)-3H-emopamil, 60 minutes at 37° C.
T1 construct: Guinea pig liver membranes: 40 mg/mL original wet weight; from tissue; host or cells: guinea pig liver membranes
T1 sequence (Q60490 1-229): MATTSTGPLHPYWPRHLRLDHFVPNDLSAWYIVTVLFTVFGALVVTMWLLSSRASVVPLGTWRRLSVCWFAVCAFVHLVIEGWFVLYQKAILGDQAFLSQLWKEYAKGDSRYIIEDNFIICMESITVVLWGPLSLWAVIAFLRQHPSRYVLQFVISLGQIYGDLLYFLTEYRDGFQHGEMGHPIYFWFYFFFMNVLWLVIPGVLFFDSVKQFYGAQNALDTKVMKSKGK
Method: -^3H-Emopamil Binding to Guinea Pig Liver Membranes
The method of (−)-^3H-emopamil binding was a modification of Zech, C., Staudinger R., Mühlbacher, J. and Glossmann, H. Novel sites for phenylalkylamines: characterization of a sodium-sensitive drug receptor with (−)-^3H-emopamil. Eur. J. Pharm. 208: 119-130, 1991.
The reaction mixture contained:
Assay buffer: 10 mM Tris-HCl, 0.1 mM phenylmethylsulfonyl fluoride (PMSF), 0.2% bovine serum albumin (BSA), pH 7.4 at 4° C.
Radioligand: 0.96 nM (−)-^3H-emopamil (Amersham).
Guinea pig liver membranes: 40 mg/mL original wet weight.
This mixture was incubated for 60 minutes at 37° C. The incubation was terminated by filtering with a Brandel Cell Harvester over Whatman GF/C filters that had been soaked for at least 120 minutes in 0.3% polyethylenimine (PEI) and washed three times with 5 mL of wash buffer containing 10 mM Tris-HCl, 10 mM MgCl2, 0.2% BSA, pH 7.4 at 25° C. Specific binding was defined with 10 μM emopamil.
Guinea-pig Liver Membrane Preparation
Male guinea pigs were sacrificed by CO2 asphyxiation with dry ice. The livers were quickly excised and weighed and rinsed in membrane preparation buffer containing 10 mM Hepes, 1 mM Tris base-EDTA, 250 mM sucrose, pH 7.4. The livers were then minced, homogenized in 10 times volume with a motor driven Teflon-glass homogenizer with three strokes on ice. […]

Row | SMILES | melting point [°C] | IC50 [1] [µM] | IC50 [2] [µM]
1 | CN1CCCN([C@H]2CCSc3ccccc32)CC1 (as salt: hydrochloride) [Example 5, S(+) 1-Methyl-4-(3,4-dihydro-2H-benzothiopyran-4yl)homopiperazine] | 208 to 209 |  | 
2 | CN1CCCN(C2CCSc3ccccc32)CC1 (centres unmarked) (as salt: maleate) [Example 1, 1 -Methyl-4-(3,4-dihydro-2H-benzothiopyran-4-yl)homopiperazine] | 117 to 118 |  | 
3 | CC(C)CN1CCCN(C2CCSc3ccccc32)CC1 (centres unmarked) (as salt: maleate) [Example 7, 1-Isobutyl-4-(3,4-dihydro-2H-benzothiopyran-4-yl)homopiperazine] | 148.2 to 148.6 |  | 
4 | CN1CCCN([C@H]2CCSc3ccccc32)CC1 [Example 5, S(+) 1-Methyl-4-(3,4-dihydro-2H-benzothiopyran-4yl)homopiperazine] |  | ~15 | 0.009
